Experiments:
CK1ε = CK1ε (Homo sapiens (Human), UniProt P49674); assay: CK1ε kinase assay (Caliper LABCHIP electrophoretic separation of fluoresceinated peptide substrate and product); assay type: biochemical; conditions: 200 pM enzyme, 50 μM ATP, 22 hours at room temperature
Procedure, shortened: (§1)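 IC50 values were obtained by non-linear regression from eleven-concentration titrations. The kinase reactions were incubated for 22 hours at room temperature before termination with 35 mM EDTA.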

CK1δ = CK1δ (Homo sapiens (Human), UniProt P48730); assay: CK1δ kinase assay (Caliper LABCHIP electrophoretic separation of fluoresceinated peptide substrate and product); assay type: biochemical; conditions: 200 pM enzyme, 50 μM ATP, 22 hours at room temperature
Sequence of CK1δ (P48730 whole entry): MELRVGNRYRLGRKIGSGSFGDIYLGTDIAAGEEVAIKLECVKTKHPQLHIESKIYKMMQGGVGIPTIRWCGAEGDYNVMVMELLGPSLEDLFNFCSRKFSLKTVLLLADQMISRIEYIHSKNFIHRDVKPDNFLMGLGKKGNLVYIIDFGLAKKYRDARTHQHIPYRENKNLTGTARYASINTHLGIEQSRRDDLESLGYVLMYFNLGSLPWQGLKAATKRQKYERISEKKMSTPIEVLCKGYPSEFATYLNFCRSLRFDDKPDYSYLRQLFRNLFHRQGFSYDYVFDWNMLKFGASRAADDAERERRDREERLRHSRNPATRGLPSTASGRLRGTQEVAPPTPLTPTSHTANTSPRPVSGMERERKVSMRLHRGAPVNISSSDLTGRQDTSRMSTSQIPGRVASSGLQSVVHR
Procedure, shortened: as §1

Sequence of CK1ε (P49674 whole entry): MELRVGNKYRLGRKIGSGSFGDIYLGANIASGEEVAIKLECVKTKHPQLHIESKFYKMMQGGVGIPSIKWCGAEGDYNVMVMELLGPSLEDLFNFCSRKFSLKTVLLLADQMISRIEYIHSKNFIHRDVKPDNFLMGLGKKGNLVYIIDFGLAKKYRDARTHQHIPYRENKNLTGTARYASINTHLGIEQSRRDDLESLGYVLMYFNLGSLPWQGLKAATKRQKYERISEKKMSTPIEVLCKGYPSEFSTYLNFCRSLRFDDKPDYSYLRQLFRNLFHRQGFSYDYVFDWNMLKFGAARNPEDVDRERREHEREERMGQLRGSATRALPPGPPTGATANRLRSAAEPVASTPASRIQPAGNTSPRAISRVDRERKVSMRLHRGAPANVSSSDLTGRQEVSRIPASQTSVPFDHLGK

Row | SMILES | IC50 (CK1ε) | IC50 (CK1δ)
1 | O=C(Nc1cn2nc(-c3c(-c4ccc(F)cc4)nc4n3CCCC4)ccc2n1)c1cccc(-c2cccnc2)c1 [Compound 442, N-(6-(2-(4-Fluorophenyl)-5,6,7,8-tetrahydroimidazo[1,2-a]pyridin-3-yl)imidazo[1,2-b]pyridazin-2-yl)-3-(pyridin-3-yl)benzamide] | 2.5 nM | 0.4 nM
2 | O=C(Nc1cn2nc(-c3c(-c4ccc(F)cc4)nc4n3CCCC4)ccc2n1)c1ccnc(N2CCOCC2)c1 [Compound 443, N-(6-(2-(4-Fluorophenyl)-5,6,7,8-tetrahydroimidazo[1,2-a]pyridin-3-yl)imidazo[1,2-b]pyridazin-2-yl)-2-morpholinoisonicotinamide] | 2.7 nM | 0.4 nM
3 | O=C(Nc1cn2nc(-c3c(-c4ccc(F)cc4)nc4n3CCCC4)ccc2n1)c1ccncc1 [Compound 444, N-(6-(2-(4-Fluorophenyl)-5,6,7,8-tetrahydroimidazo[1,2-a]pyridin-3-yl)imidazo[1,2-b]pyridazin-2-yl)isonicotinamide] | 2.4 nM | 0.2 nM
4 | O=C(Nc1cn2nc(-c3c(-c4ccc(F)cc4)nc4n3CCCC4)ccc2n1)c1cc(F)nc(F)c1 [Compound 445, 2,6-Difluoro-N-(6-(2-(4-fluorophenyl)-5,6,7,8-tetrahydroimidazo[1,2-a]pyridin-3-yl)imidazo[1,2-b]pyridazin-2-yl)isonicotinamide] | 4.7 nM | 0.4 nM
5 | O=C(Nc1cn2nc(-c3c(-c4ccc(F)cc4)nc4n3CCOC4)ccc2n1)c1ccnc(F)c1 [Compound 447, 2-Fluoro-N-(6-(2-(4-fluorophenyl)-6,8-dihydro-5H-imidazo[2,1-c][1,4]oxazin-3-yl)imidazo[1,2-b]pyridazin-2-yl)isonicotinamide] | 5.8 nM | 0.4 nM
6 | O=C(Nc1cn2nc(-c3c(-c4ccc(F)cc4)nc4n3CCOC4)ccc2n1)c1ccncc1 [Compound 448, N-(6-(2-(4-Fluorophenyl)-6,8-dihydro-5H-imidazo[2,1-c][1,4]oxazin-3-yl)imidazo[1,2-b]pyridazin-2-yl)isonicotinamide] | 3.6 nM | 0.4 nM
7 | O=C(Nc1cn2nc(-c3c(-c4ccc(F)cc4)nc4n3CCOC4)ccc2n1)c1cc(F)nc(F)c1 [Compound 449, 2,6-Difluoro-N-(6-(2-(4-fluorophenyl)-6,8-dihydro-5H-imidazo[2,1-c][1,4]oxazin-3-yl)imidazo[1,2-b]pyridazin-2-yl)isonicotinamide] | 9 nM | 0.7 nM
8 | O=C(Nc1cn2nc(-c3c(-c4ccc(F)cc4)nc4n3CCOC4)ccc2n1)c1ccnc(N2CCOCC2)c1 [Compound 450, N-(6-(2-(4-Fluorophenyl)-6,8-dihydro-5H-imidazo[2,1-c][1,4]oxazin-3-yl)imidazo[1,2-b]pyridazin-2-yl)-2-morpholinoisonicotinamide] | 6.9 nM | 0.7 nM
9 | O=C(Nc1cn2nc(-c3c(-c4ccc(F)cc4)nc4n3CCOC4)ccc2n1)c1cccc(-c2cccnc2)c1 [Compound 451, N-(6-(2-(4-Fluorophenyl)-6,8-dihydro-5H-imidazo[2,1-c][1,4]oxazin-3-yl)imidazo[1,2-b]pyridazin-2-yl)-3-(pyridin-3-yl)benzamide] | 4.6 nM | 0.4 nM
10 | O=C(Nc1cn2nc(-c3c(-c4ccc(F)cc4)nc4ccc(N5CCOCC5)cn34)ccc2n1)c1ccnc(F)c1 [Compound 452, 2-Fluoro-N-(6-(2-(4-fluorophenyl)-6-morpholinoimidazo[1,2-a]pyridin-3-yl)imidazo[1,2-b]pyridazin-2-yl)isonicotinamide] | 1.5 nM | 0.3 nM
11 | O=C(Nc1cn2nc(-c3c(-c4ccc(F)cc4)nc4n3CCNC4)ccc2n1)c1ccncc1 [Compound 456, N-(6-(2-(4-Fluorophenyl)-5,6,7,8-tetrahydroimidazo[1,2-a]pyrazin-3-yl)imidazo[1,2-b]pyridazin-2-yl)isonicotinamide] | 7 nM | 0.9 nM
12 | O=C(Nc1cn2nc(-c3c(-c4ccc(F)cc4)nc4n3CCNC4)ccc2n1)c1cc(F)nc(F)c1 [Compound 457, 2,6-Difluoro-N-(6-(2-(4-fluorophenyl)-5,6,7,8-tetrahydroimidazo[1,2-a]pyrazin-3-yl)imidazo[1,2-b]pyridazin-2-yl)isonicotinamide] | 8.5 nM | 0.5 nM
13 | O=C(Nc1cn2nc(-c3c(-c4ccc(F)cc4)nc4n3CCNC4)ccc2n1)c1ccnc(N2CCOCC2)c1 [Compound 458, N-(6-(2-(4-Fluorophenyl)-5,6,7,8-tetrahydroimidazo[1,2-a]pyrazin-3-yl)imidazo[1,2-b]pyridazin-2-yl)-2-morpholinoisonicotinamide] | 3.7 nM | 0.3 nM
14 | O=C(Nc1cn2nc(-c3c(-c4ccc(F)cc4)nc4n3CCNC4)ccc2n1)c1cccc(-c2cccnc2)c1 [Compound 459, N-(6-(2-(4-Fluorophenyl)-5,6,7,8-tetrahydroimidazo[1,2-a]pyrazin-3-yl)imidazo[1,2-b]pyridazin-2-yl)-3-(pyridin-3-yl)benzamide] | 2.6 nM | 0.3 nM

Second part, the compound after the results:

Row | IC50 (CK1ε) | IC50 (CK1δ) | SMILES
15 | 3.7 nM | 0.6 nM | CC(=O)N1CCn2c(nc(-c3ccc(F)cc3)c2-c2ccc3nc(NC(=O)c4ccnc(F)c4)cn3n2)C1 [Compound 460, N-(6-(7-Acetyl-2-(4-fluorophenyl)-5,6,7,8-tetrahydroimidazo[1,2-a]pyrazin-3-yl)imidazo[1,2-b]pyridazin-2-yl)-2-fluoroisonicotinamide]
16 | 2.6 nM | 0.6 nM | O=C(Nc1cn2nc(-c3c(-c4ccc(F)cc4)nc4n3CCN(C(=O)CC(F)(F)F)C4)ccc2n1)c1ccnc(F)c1 [Compound 461, 2-Fluoro-N-(6-(2-(4-fluorophenyl)-7-(3,3,3-trifluoropropanoyl)-5,6,7,8-tetrahydroimidazo[1,2-a]pyrazin-3-yl)imidazo[1,2-b]pyridazin-2-yl)isonicotinamide]
17 | 6.5 nM | 1.2 nM | O=C(Nc1cn2nc(-c3c(-c4ccc(F)cc4)nc4n3CCN(C(=O)CCC(F)(F)F)C4)ccc2n1)c1ccnc(F)c1 [Compound 462, 2-Fluoro-N-(6-(2-(4-fluorophenyl)-7-(4,4,4-trifluorobutanoyl)-5,6,7,8-tetrahydroimidazo[1,2-a]pyrazin-3-yl)imidazo[1,2-b]pyridazin-2-yl)isonicotinamide]
18 | 3.8 nM | 0.5 nM | CC(C)C(=O)N1CCn2c(nc(-c3ccc(F)cc3)c2-c2ccc3nc(NC(=O)c4ccnc(F)c4)cn3n2)C1 [Compound 463, 2-Fluoro-N-(6-(2-(4-fluorophenyl)-7-isobutyryl-5,6,7,8-tetrahydroimidazo[1,2-a]pyrazin-3-yl)imidazo[1,2-b]pyridazin-2-yl)isonicotinamide]
19 | 2.3 nM | 0.1 nM | CC(C)(C)C(=O)N1CCn2c(nc(-c3ccc(F)cc3)c2-c2ccc3nc(NC(=O)c4ccnc(F)c4)cn3n2)C1 [Compound 464, 2-Fluoro-N-(6-(2-(4-fluorophenyl)-7-pivaloyl-5,6,7,8-tetrahydroimidazo[1,2-a]pyrazin-3-yl)imidazo[1,2-b]pyridazin-2-yl)isonicotinamide]
20 | 5 nM | 0.6 nM | CC(C)(C(=O)N1CCn2c(nc(-c3ccc(F)cc3)c2-c2ccc3nc(NC(=O)c4ccnc(F)c4)cn3n2)C1)C(F)(F)F [Compound 465, 2-Fluoro-N-(6-(2-(4-fluorophenyl)-7-(3,3,3-trifluoro-2,2-dimethylpropanoyl)-5,6,7,8-tetrahydroimidazo[1,2-a]pyrazin-3-yl)imidazo[1,2-b]pyridazin-2-yl)isonicotinamide]
21 | 1.5 nM | 0.2 nM | O=C(Nc1cn2nc(-c3c(-c4ccc(F)cc4)nc4n3CCN(C(=O)C3CC3(F)F)C4)ccc2n1)c1ccnc(F)c1 (stereo not shown) [Compound 466, N-(6-(7-(2,2-Difluorocyclopropanecarbonyl)-2-(4-fluorophenyl)-5,6,7,8-tetrahydroimidazo[1,2-a]pyrazin-3-yl)imidazo[1,2-b]pyridazin-2-yl)-2-fluoroisonicotinamide]
22 | 6.1 nM | 0.8 nM | O=C(Nc1cn2nc(-c3c(-c4ccc(F)cc4)nc4n3CCN(C(=O)C3(C(F)(F)F)CCC3)C4)ccc2n1)c1ccnc(F)c1 [Compound 467, 2-Fluoro-N-(6-(2-(4-fluorophenyl)-7-(1-(trifluoromethyl)cyclobutanecarbonyl)-5,6,7,8-tetrahydroimidazo[1,2-a]pyrazin-3-yl)imidazo[1,2-b]pyridazin-2-yl)isonicotinamide]
23 | 3.9 nM | 0.5 nM | CC1(C(=O)N2CCn3c(nc(-c4ccc(F)cc4)c3-c3ccc4nc(NC(=O)c5ccnc(F)c5)cn4n3)C2)COC1 [Compound 468, 2-Fluoro-N-(6-(2-(4-fluorophenyl)-7-(3-methyloxetane-3-carbonyl)-5,6,7,8-tetrahydroimidazo[1,2-a]pyrazin-3-yl)imidazo[1,2-b]pyridazin-2-yl)isonicotinamide]
24 | 12.9 nM | 2.3 nM | O=C(Nc1cn2nc(-c3c(-c4ccc(F)cc4)nc4n3CCN(C(=O)C3CC3)C4)ccc2n1)c1ccnc(F)c1 [Compound 469, N-(6-(7-(Cyclopropanecarbonyl)-2-(4-fluorophenyl)-5,6,7,8-tetrahydroimidazo[1,2-a]pyrazin-3-yl)imidazo[1,2-b]pyridazin-2-yl)-2-fluoroisonicotinamide]
25 | 8.1 nM | 1.1 nM | CC(C)(O)C(=O)N1CCn2c(nc(-c3ccc(F)cc3)c2-c2ccc3nc(NC(=O)c4ccnc(F)c4)cn3n2)C1 [Compound 470, 2-Fluoro-N-(6-(2-(4-fluorophenyl)-7-(2-hydroxy-2-methylpropanoyl)-5,6,7,8-tetrahydroimidazo[1,2-a]pyrazin-3-yl)imidazo[1,2-b]pyridazin-2-yl)isonicotinamide]
26 | 3.5 nM | 0.5 nM | N#CC1(C(=O)N2CCn3c(nc(-c4ccc(F)cc4)c3-c3ccc4nc(NC(=O)c5ccnc(F)c5)cn4n3)C2)CC1 [Compound 471, N-(6-(7-(1-Cyanocyclopropanecarbonyl)-2-(4-fluorophenyl)-5,6,7,8-tetrahydroimidazo[1,2-a]pyrazin-3-yl)imidazo[1,2-b]pyridazin-2-yl)-2-fluoroisonicotinamide]

From patent US9556179B2 (BRISTOL-MYERS SQUIBB COMPANY, priority 2012, dated 2017)
